US5389663A, “1-(1h-1,2,4-triazole-yl)-2-propanol compounds” (Takeda Chemical Industries, Ltd., priority 1991, dated 1995)
Like-named read-outs stand apart in the source and are kept apart here.

Experiments:
[1] = test system: Microsporum gypseum IFO 6075; experiment: Paper disc agar diffusion, growth inhibition zone, Microsporum gypseum IFO 6075; type: cell-based; details: Nannizzia gypsea, IFO6075, 48 h; Table 4; medium B (Sabouraud agar), 28° C., two days, 1000 μ/ml, 8 mm disc; read-out: Diameter of growth inhibition zone
Experimental: (§1) Evaluation of the antifungal activities of the compound of formula (I) was conducted by the following method: a sheet of filter paper disc (manufactured by Toyo Seisakusho, 8 mm in diameter) soaked in a […] solution of a compound of formula (I) in methanol was placed on an agar plate containing various fungi, which was incubated at 28° C. for two days, and the diameter of the growth inhibition zone around the filter paper disc was measured. The following culture media were used: A: yeast nitrogen base agar medium (pH 7.0) B: Sabouraud agar medium

[2] = test system: Trichophyton rubrum IFO 6467; experiment: Paper disc agar diffusion, growth inhibition zone, Trichophyton rubrum IFO 6467; type: cell-based; details: IFO6467, 48 h, Table 4, medium B (Sabouraud agar), 28° C., two days, 1000 μ/ml, 8 mm disc, read-out: Diameter of growth inhibition zone
Experimental: as §1

[3] = test system: Aspergillus niger IFO 4066; experiment: Paper disc agar diffusion, growth inhibition zone, Aspergillus niger IFO 4066; type: cell-based; details: IFO4066, 48 h, Table 4, medium A, 28° C., two days, 1000 μ/ml, 8 mm disc, read-out: Diameter of growth inhibition zone
Experimental: as §1

[4] = test system: Trichophyton mentagrophytes IFO 7522; experiment: Paper disc agar diffusion, growth inhibition zone, Trichophyton mentagrophytes IFO 7522; type: cell-based; details: IFO7522, 48 h, Table 4, medium B (Sabouraud agar), 28° C., two days, 1000 μ/ml, 8 mm disc, read-out: Diameter of growth inhibition zone
Experimental: as §1

Candida albicans = experiment: Protective effect against Candida albicans infection in mice; type: in vivo, Crj:CDF1 mice; details: 168 h, minimum lethal dose of Candida albicans iv, drug once immediately after infection, survival 7 days after infection
From the text: Test Method: Five-week old Crj:CDF1 mice were inoculated with the minimum lethal dose of Candida albicans intravenously. The test drug was given once immediately after infection. The effectiveness of the drug was expressed in ED50 values calculated by the Reed and Muench method from the survival rate 7 days after infection.

Candida utilis IFO 0619 = experiment: Paper disc agar diffusion, growth inhibition zone, Candida utilis IFO 0619; type: cell-based; details: Williopsis jadinii, IFO0619, 48 h; Table 4; medium A, 28° C., two days, 1000 μ/ml, 8 mm disc; read-out: Diameter of growth inhibition zone
Experimental: as §1

[5] = test system: Aspergillus fumigatus IFO 6344; experiment: Paper disc agar diffusion, growth inhibition zone, Aspergillus fumigatus IFO 6344; type: cell-based; details: IFO6344, 48 h, Table 4, medium A, 28° C., two days, 1000 μ/ml, 8 mm disc, read-out: Diameter of growth inhibition zone
Experimental: as §1

[6] = test system: Cryptococcus neoformans IFO 0410; experiment: Paper disc agar diffusion, growth inhibition zone, Cryptococcus neoformans IFO 0410; type: cell-based; details: IFO0410, 48 h, Table 4, medium A, 28° C., two days, 1000 μ/ml, 8 mm disc, read-out: Diameter of growth inhibition zone
Experimental: as §1

[7] = test system: Candida albicans IFO 0583; experiment: Paper disc agar diffusion, growth inhibition zone, Candida albicans IFO 0583; type: cell-based; details: 28° C., 8 mm disc
Experimental: as §1
cpd. No. (Medium A, 28° C., two-day culture)

[8] = 48 h, pH 7, Table 4, medium A (yeast nitrogen base agar, pH 7.0), two days, 1000 μ/ml in methanol, read-out: Diameter of growth inhibition zone
[9] = Candida albicans, IFO0583, 48 h, Table 5, Medium A, two-day culture, 1000 μ/ml, read-out: Diameter of growth-inhibition zone

| SMILES | ED50 (Candida albicans; po) | zone of inhibition at 1000 µg/mL [7, 9] | also measured |
| --- | --- | --- | --- |
| C[C@H]([C@](O)(Cn1cncn1)c1ccc(F)cc1F)S(=O)(=O)N(C)C [Compound 2, N,N-dimethyl-[(2R,3R)-3-(2,4-difluorophenyl)-3-hydroxy-4-(1H-1,2,4-triazol-1-yl) -2-butane]sulfonamide] | 5 mg/kg | – | zone of inhibition at 1000 µg/mL [1]: 22 mm; zone of inhibition at 1000 µg/mL [2]: 35 mm; zone of inhibition at 1000 µg/mL [3]: 25 mm; zone of inhibition at 1000 µg/mL [4]: 25 mm; ED50 (Candida albicans; sc): 5 mg/kg; zone of inhibition at 1000 µg/mL (Candida utilis IFO 0619): 36 mm; zone of inhibition at 1000 µg/mL [5]: 25 mm; zone of inhibition at 1000 µg/mL [6]: 38 mm; zone of inhibition at 1000 µg/mL [7, 8]: 25 mm |
| C[C@@H](SNc1ccc(Br)cc1)[C@](O)(Cn1cncn1)c1ccc(F)cc1F [Compound 21, N-(4-bromophenyl)-[(2R,3R)-3-(2,4-difluorophenyl)-3-hydroxy-4-(1H-1,2,4-triazol-1-yl)-2butane]sulfenamide] | – | – | zone of inhibition at 1000 µg/mL [1]: 24 mm; zone of inhibition at 1000 µg/mL [2]: 45 mm; zone of inhibition at 1000 µg/mL [3]: 20 mm; zone of inhibition at 1000 µg/mL [4]: 25 mm; zone of inhibition at 1000 µg/mL (Candida utilis IFO 0619): 40 mm; zone of inhibition at 1000 µg/mL [5]: 30 mm; zone of inhibition at 1000 µg/mL [6]: 30 mm; zone of inhibition at 1000 µg/mL [7, 8]: 43 mm |
| C[C@H]([C@](O)(Cn1cncn1)c1ccc(F)cc1F)S(=O)(=O)N1CCN(c2ccccc2)CC1 [Compound 23] | 7.1 mg/kg | – | zone of inhibition at 1000 µg/mL [1]: 30 mm; zone of inhibition at 1000 µg/mL [2]: 40 mm; zone of inhibition at 1000 µg/mL [3]: 20 mm; zone of inhibition at 1000 µg/mL [4]: 25 mm; zone of inhibition at 1000 µg/mL (Candida utilis IFO 0619): 45 mm; zone of inhibition at 1000 µg/mL [5]: 22 mm; zone of inhibition at 1000 µg/mL [6]: 40 mm; zone of inhibition at 1000 µg/mL [7, 8]: 45 mm |
| C[C@@H](N(C)S(=O)(=O)CC(F)(F)F)[C@](O)(Cn1cncn1)c1ccc(F)cc1F [Compound 54] | 3.5 mg/kg | 40 mm | – |
| C[C@@H](NS(=O)(=O)CC(F)(F)F)[C@](O)(Cn1cncn1)c1ccc(F)cc1F [Compound 55] | 2 mg/kg | 35 mm | – |
| C[C@H]([C@](O)(Cn1cncn1)c1ccc(F)cc1F)S(=O)(=O)NCc1ccccc1 [Compound 58, N-benzyl-[(2R,3R)-3-(2,4-difluorophenyl)-3-hydroxy-4-(1H-1,2,4-triazol-1-yl)-2-butane]sulfonamide] | 8 mg/kg | 40 mm | – |
| C[C@H]([C@](O)(Cn1cncn1)c1ccc(F)cc1F)S(=O)(=O)NC(c1ccccc1)c1ccccc1 [Compound 59, N-diphenylmethyl-[(2R,3R)-3-(2,4-difluorophenyl)-3-hydroxy-4-(1H-1,2,4-triazol-1-yl)-2-butane]sulfonamide] | 11.3 mg/kg | 30 mm | – |
| C[C@H]([C@](O)(Cn1cncn1)c1ccc(F)cc1F)S(=O)(=O)N(C)Cc1cccnc1 [Compound 64, N-(3-pyridylmethyl)-N-methyl-[(2R,3R)-3-(2,4-difluorophenyl)-3-hydroxy-4-(1H-1,2,4-triazol-1-yl)-2-butane]sulfonamide] | 2.8 mg/kg | 40 mm | – |
| C[C@H]([C@](O)(Cn1cncn1)c1ccc(F)cc1F)S(N)(=O)=O [Compound 65, (2R,3R)-3-(2,4-difluorophenyl)-3-hydroxy-4-(1H-1,2,4-triazol-1-yl)-2-butanesulfonamide] | 11.3 mg/kg | 30 mm | – |
| C[C@H]([C@](O)(Cn1cncn1)c1ccc(F)cc1F)S(=O)(=O)N1CCN(c2ccc(OCC(F)(F)F)cc2)CC1 [Compound 70, 4-[(2R,3R)-3-(2,4-difluorophenyl)-3-hydroxy-4-(1H-1,2,4-triazol-1-yl)-2-butanesulfonyl]-1-[4-(2,2,2-trifluoroethoxy)phenyl]piperazine] | 8 mg/kg | 42 mm | – |
| C[C@H]([C@](O)(Cn1cncn1)c1ccc(F)cc1F)S(=O)(=O)N1CCN(c2ccc(F)cc2)CC1 [Compound 71, 4-[(2R,3R)-3-(2,4-difluorophenyl)-3-hydroxy-4-(1H-1,2,4-triazol-1-yl)-2-butanesulfonyl]-1(4-fluorophenyl)piperazine] | 8 mg/kg | 47 mm | – |
| C[C@H]([C@](O)(Cn1cncn1)c1ccc(F)cc1F)S(=O)(=O)N1CCN(c2ccc(C(F)(F)F)cc2)CC1 [Compound 73, 4-[(2R,3R)-3-(2,4-difluorophenyl)-3-hydroxy-4-(1H-1,2,4-triazol-1-yl)-2-butanesulfonyl]-1-(4-trifluoromethylphenyl)piperazine] | 6.4 mg/kg | 32 mm | – |
| C[C@H]([C@](O)(Cn1cncn1)c1ccc(F)cc1F)S(=O)(=O)N(C)Cc1nccn1C [Compound 75] | 8 mg/kg | 34 mm | – |
| C[C@H]([C@](O)(Cn1cncn1)c1ccc(F)cc1F)S(=O)(=O)N(C)Cc1ccncc1 [Compound 76] | 8 mg/kg | 40 mm | – |
| C[C@H]([C@](O)(Cn1cncn1)c1ccc(F)cc1F)S(=O)(=O)N(C)Cc1nccs1 [Compound 78] | 8 mg/kg | 40 mm | – |
| C[C@H]([C@](O)(Cn1ccnc1)c1ccc(F)cc1F)S(=O)(=O)N(C)Cc1ccc(C(F)(F)F)cc1 [Compound 86, N-methyl-N-(4-trifluoromethylbenzyl)-[(2R,3R)-3-(2,4-difluorophenyl)-3-hydroxy-4-(1-imidazolyl)-2-butane]sulfonamide] | 8 mg/kg | 35 mm | – |
| C[C@H]([C@](O)(Cn1cncn1)c1ccc(F)cc1F)S(=O)(=O)N1CCN(c2nc(Cl)ncc2F)CC1 [Compound 91, 1-[(2R,3R)-3-(2,4-difluorophenyl)-3-hydroxy-4-(1H-1,2,4-triazol-1-yl)-2-butanesulfonyl]-4-(2-chloro-5-fluoropyrimidin-4-yl)piperazine] | 11.3 mg/kg | 50 mm | – |
